Here are results for 8 compounds from patent US20260015350A1, “AZAQUINAZOLINE PAN-KRAS INHIBITORS” (Mirati Therapeutics, Inc., priority 2022, published 2026).

One experiment addresses T1, KRas^WT (Homo sapiens, UniProt P01116).
T1 construct: Biotinylated KRas (corresponding to amino acids 1-169, produced at Accelegan Inc.); biotin (biotinylated); purchased Accelegan Inc
Kind of experiment: KRas binding assay (TR-FRET tracer displacement), KRas WT. Conditions: TR-FRET tracer displacement, KRas WT.

For a further experiment, the target named is T2, KRas^G12C (Homo sapiens, UniProt P01116, G12C).
T2 construct: Biotinylated KRas (corresponding to amino acids 1-169, produced at Accelegan Inc.); biotin (biotinylated); purchased Accelegan Inc
Kind of experiment: KRas binding assay (TR-FRET tracer displacement), KRas G12C. Conditions: TR-FRET tracer displacement, KRas G12C.

Another experiment has as its target T3, KRas^G12D (Homo sapiens, UniProt P01116, G12D).
T3 construct: Biotinylated KRas (corresponding to amino acids 1-169, produced at Accelegan Inc.); biotin (biotinylated); purchased Accelegan Inc
Kind of experiment: KRas binding assay (TR-FRET tracer displacement), KRas G12D. For orientation: In TR-FRET formats the signal depends on donor and acceptor labels being close together.

Another experiment addresses T4, KRas^G12S (Homo sapiens, UniProt P01116, G12S).
T4 construct: Biotinylated KRas (corresponding to amino acids 1-169, produced at Accelegan Inc.); biotin (biotinylated); purchased Accelegan Inc
Kind of experiment: KRas binding assay (TR-FRET tracer displacement), KRas G12S. Conditions: TR-FRET tracer displacement, KRas G12S.

The target in the next experiment is T5, KRas^G12V (Homo sapiens, UniProt P01116, G12V).
T5 construct: Biotinylated KRas (corresponding to amino acids 1-169, produced at Accelegan Inc.); biotin (biotinylated); purchased Accelegan Inc
Kind of experiment: KRas binding assay (TR-FRET tracer displacement), KRas G12V.

Experiment [1] concerns KRas-mediated phosphorylation of ERK in MKN1 cells. Kind of experiment: Inhibition of KRas-mediated phosphorylation of ERK (Cisbio HTRF pERK), MKN1 cells. It is filed as cell-based. Particulars: Homo sapiens, MKN-1. The procedure, abridged: (§1)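 Day 1 seeding: 6,000 cells per well, RPMI/10% FBS, left overnight at 37° C. with 5% CO2. Plates then stood covered for 4 h at room temperature prior to HTRF detection of pERK.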

For experiment [2], the system named is KRas-mediated phosphorylation of ERK in PSN1 cells. Kind of experiment: Inhibition of KRas-mediated phosphorylation of ERK (Cisbio HTRF pERK), PSN1 cells. The format is cell-based. Conditions: Homo sapiens. In a few lines:
as §1

Experiment [3] has as its system KRas-mediated phosphorylation of ERK in AsPC-1 cells. Kind of experiment: Inhibition of KRas-mediated phosphorylation of ERK (Cisbio HTRF pERK), AsPC-1 cells. The format is cell-based. Conditions: Homo sapiens, ASPC1, AsPC-1 cells; HTRF pERK. In a few lines:
(§2)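 Phosphorylated ERK was quantified by HTRF using d2-conjugate and Cryptate antibodies added to lysates for 2 hrs at room temperature.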

The subject of experiment [4] is KRas-mediated phosphorylation of ERK in H727 cells. Kind of experiment: Inhibition of KRas-mediated phosphorylation of ERK (Cisbio HTRF pERK), H727 cells. Particulars: Homo sapiens, NCI-H727, H727 cells; HTRF pERK. It is filed as cell-based. In a few lines:
as §2

Experiment [5] relates to KRas-mediated phosphorylation of ERK in A549 cells. Kind of experiment: Inhibition of KRas-mediated phosphorylation of ERK (Cisbio HTRF pERK), A549 cells. It is filed as cell-based. Particulars: Homo sapiens, HTRF pERK. In a few lines: (§3)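 Cells were seeded at 6,000 per well and treated for 3 hrs with compound in a 10-dose, 3-fold series from 10 uM (0.8% final DMSO), with 0.2 uM Trametinib as Min control. Lysates made at 4° C over 40 mins were incubated 2 hrs at room temperature with d2- and Cryptate-labelled antibodies, then read by HTRF.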

For experiment [6], the system named is KRas-mediated phosphorylation of ERK in H460 cells. Kind of experiment: Inhibition of KRas-mediated phosphorylation of ERK (Cisbio HTRF pERK), H460 cells. It is filed as cell-based. Particulars: Homo sapiens, NCI-H460, HTRF pERK. In a few lines: as §2
The subject of experiment [7] is KRas-mediated phosphorylation of ERK in HCT116 cells. Kind of experiment: Inhibition of KRas-mediated phosphorylation of ERK (Cisbio HTRF pERK), HCT116 cells. Conditions: Homo sapiens, HCT-116, HTRF pERK. The format is cell-based. The procedure, abridged: as §3
For experiment [8], the system named is KRas-mediated phosphorylation of ERK in H358 cells. Kind of experiment: Inhibition of KRas-mediated phosphorylation of ERK (Cisbio HTRF pERK), H358 cells. It is filed as cell-based. Particulars: Homo sapiens, NCI-H358, HTRF pERK. In a few lines: as §2

The IC50 is the midpoint of a concentration-inhibition curve. A higher IC50 goes with a need for much substance.

T4 sequence (P01116 1-169 isoform P01116-2 G12S): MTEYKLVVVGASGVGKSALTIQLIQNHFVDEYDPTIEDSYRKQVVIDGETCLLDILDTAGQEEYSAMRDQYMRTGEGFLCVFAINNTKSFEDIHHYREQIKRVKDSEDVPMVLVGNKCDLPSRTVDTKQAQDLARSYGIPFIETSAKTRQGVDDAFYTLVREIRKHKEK
T5 sequence (P01116 1-169 isoform P01116-2 G12V): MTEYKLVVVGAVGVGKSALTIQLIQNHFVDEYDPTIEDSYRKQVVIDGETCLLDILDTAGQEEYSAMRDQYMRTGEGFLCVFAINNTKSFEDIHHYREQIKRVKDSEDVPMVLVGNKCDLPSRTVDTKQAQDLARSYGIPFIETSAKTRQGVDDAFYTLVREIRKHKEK
T1 sequence (P01116 1-169 isoform P01116-2): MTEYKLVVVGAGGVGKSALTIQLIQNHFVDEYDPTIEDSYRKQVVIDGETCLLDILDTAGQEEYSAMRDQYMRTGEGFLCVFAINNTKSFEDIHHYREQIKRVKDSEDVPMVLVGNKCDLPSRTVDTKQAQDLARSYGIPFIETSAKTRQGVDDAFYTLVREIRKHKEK
T2 sequence (P01116 1-169 isoform P01116-2 G12C): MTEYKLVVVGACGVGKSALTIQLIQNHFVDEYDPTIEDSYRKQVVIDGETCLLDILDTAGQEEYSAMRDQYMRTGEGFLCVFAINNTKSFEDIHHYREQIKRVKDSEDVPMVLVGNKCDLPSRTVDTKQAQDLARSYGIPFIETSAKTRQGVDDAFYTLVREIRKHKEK
T3 sequence (P01116 1-169 isoform P01116-2 G12D): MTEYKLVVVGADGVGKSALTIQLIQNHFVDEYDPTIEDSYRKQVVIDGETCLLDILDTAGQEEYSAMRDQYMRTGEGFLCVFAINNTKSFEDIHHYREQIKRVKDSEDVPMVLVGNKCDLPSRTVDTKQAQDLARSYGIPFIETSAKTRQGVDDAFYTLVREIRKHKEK

As for `C#Cc1c(F)ccc2cc(O)cc(-c3ncc4c(N5CCC[C@@](C)(O)C5)nc(OC[C@]56CCCN5C/C(=C\F)C6)nc4c3F)c12` [Example 801, (3R)-1-(7-(8-ethynyl-7-fluoro-3-hydroxynaphthalen-1-yl)-8-fluoro-2-(((Z)-2-(fluoromethylene)tetrahydro-1H-pyrrolizin-7a(5H)-yl)methoxy)pyrido[4,3-d]pyrimidin-4-yl)-3-methylpiperidin-3-ol], the IC50 is < 2 nM on KRas^WT; < 2 nM on KRas^G12C; < 2 nM at KRas^G12D; < 2 nM on KRas^G12S; < 2 nM at KRas^G12V; 0.1 nM in experiment [1]. Moreover, the IC50 in experiment [2] was 117 nM; in experiment [3], 3 nM; in [4] it was 12 nM; in experiment [5], 7 nM; in experiment [6], 4 nM; in experiment [7], 15 nM. Besides, in [8], the IC50 is 1 nM.

In the case of `CCc1c(F)ccc2cc(O)cc(-c3ncc4c(N5CCCn6nc(C(=O)N(C)C)cc6C5)nc(OCC56CCCN5C/C(=C\F)C6)nc4c3F)c12` (centres unmarked) [Example 795, (Z)-5-(7-(8-ethyl-7-fluoro-3-hydroxynaphthalen-1-yl)-8-fluoro-2-((2-(fluoromethylene)tetrahydro-1H-pyrrolizin-7a(5H)-yl)methoxy)pyrido[4,3-d]pyrimidin-4-yl)-N,N-dimethyl-5,6,7,8-tetrahydro-4H-pyrazolo[1,5-a][1,4]diazepine-2-carboxamide], the IC50 at KRas^WT is < 2 nM; at KRas^G12C, < 2 nM; at KRas^G12D it was < 2 nM; at KRas^G12S it was < 2 nM; at KRas^G12V, < 2 nM; in experiment [1], 4 nM. Besides, the IC50 worked out at 4790 nM in experiment [2]; 2 nM in [3]; 11 nM in [4]; 41 nM in experiment [5]; 28 nM in [6]; 130 nM in experiment [7]. Moreover, half-maximal inhibition in [8] (IC50) required 4 nM.

`CCc1c(F)ccc2cc(O)cc(-c3ncc4c(N5CC=CCC5)nc(OC[C@@]56CCCN5C[C@H](F)C6)nc4c3F)c12` [Example 921, 4-(4-(3,6-dihydropyridin-1(2H)-yl)-8-fluoro-2-(((2R,7aS)-2-fluorotetrahydro-1H-pyrrolizin-7a(5H)-yl)methoxy)pyrido[4,3-d]pyrimidin-7-yl)-5-ethyl-6-fluoronaphthalen-2-ol]: the 50% inhibitory concentration (IC50) at KRas^WT is 4 nM; at KRas^G12C it was 2 nM; on KRas^G12D, 4 nM; on KRas^G12S, 2 nM; at KRas^G12V it was 2 nM; in [1], 0.4 nM. For the same compound, the half-inhibitory concentration (IC50) came out at 7630 nM in experiment [2]; 92 nM in experiment [3]; 86 nM in [4]; 68 nM in experiment [5]; 75 nM in experiment [6]; 309 nM in [7]. Further, in experiment [8], it took 33 nM to reach half-maximal inhibition (IC50).

`CCc1c(F)ccc2cc(O)cc(-c3ncc4c(N5C[C@@H]6C[C@H](C5)[C@H](O)C6)nc(OCC56CCCN5C/C(=C\F)C6)nc4c3F)c12` (stereo partly drawn) [Example 793, (1R,5R,6R)-3-(7-(8-ethyl-7-fluoro-3-hydroxynaphthalen-1-yl)-8-fluoro-2-(((Z)-2-(fluoromethylene)tetrahydro-1H-pyrrolizin-7a(5H)-yl)methoxy)pyrido[4,3-d]pyrimidin-4-yl)-3-azabicyclo[3.2.1]octan-6-ol]: the IC50 on KRas^WT is < 2 nM; at KRas^G12C it was < 2 nM; on KRas^G12D it was < 2 nM; at KRas^G12S it was < 2 nM; on KRas^G12V it was < 2 nM; in experiment [1], 0.3 nM. The IC50 in experiment [2] stood at 246 nM; in experiment [3], 3 nM; in experiment [4] it was 3 nM; in [5] it was 1 nM; in experiment [6], 2 nM; in [7], 9 nM. The half-inhibitory concentration (IC50) in experiment [8] was found to be 1 nM.

`CCc1c(F)ccc2cc(O)cc(-c3ncc4c(N5CCC[C@@](C)(O)C5)nc(OC[C@]56CCCN5CC(=C(F)F)C6)nc4c3F)c12` (single isomer, unassigned) [Example 919]: the concentration for half-maximal inhibition (IC50) at KRas^WT is < 2 nM; at KRas^G12C it was < 2 nM; at KRas^G12D, < 2 nM; on KRas^G12S, < 2 nM; on KRas^G12V, < 2 nM; in experiment [1], 3 nM. Moreover, the IC50 in [2] came out at 2480 nM; in experiment [3] it was 14 nM; in [4] it was 43 nM; in [5], 19 nM; in [6], 10 nM; in experiment [7], 37 nM. In addition, the IC50 in [8] turned out to be 14 nM.

With `C[C@@H]1C[C@@H]1c1c(Cl)cc(O)cc1-c1ncc2c(N3C[C@@H]4C[C@H](C3)[C@H](O)C4)nc(OC[C@@]34CCCN3C[C@H](F)C4)nc2c1F` (stereo in doubt) [Example 920, (1R,5R,6R)-3-(7-(3-chloro-5-hydroxy-2-(cis-2-methylcyclopropyl)phenyl)-8-fluoro-2-(((2R,7aS)-2-fluorotetrahydro-1H-pyrrolizin-7a(5H)-yl)methoxy)pyrido[4,3-d]pyrimidin-4-yl)-3-azabicyclo[3.2.1]octan-6-ol], the IC50 is 2 nM on KRas^WT; < 2 nM on KRas^G12C; 4 nM at KRas^G12D; < 2 nM on KRas^G12S; < 2 nM on KRas^G12V; 4 nM in [1]. Besides, the IC50 in experiment [2] was 2060 nM; in experiment [3] it was 77 nM; in experiment [4] it was 42 nM; in [5], 19 nM; in experiment [6], 15 nM; in experiment [7], 44 nM. In addition, in [8], the IC50 was determined as 12 nM.

As to `CCc1c(F)ccc2cc(O)cc(-c3ncc4c(N5C[C@@H]6C[C@H](C5)[C@H](O)C6)nc(OCC56CCCN5CC5(CC5)C6)nc4c3F)c12` (stereo partly drawn) [Example 931, (1R,5R,6R)-3-(2-((dihydro-1′H,3′H-spiro[cyclopropane-1,2′-pyrrolizin]-7a′ (5′H)-yl)methoxy)-7-(8-ethyl-7-fluoro-3-hydroxynaphthalen-1-yl)-8-fluoropyrido[4,3-d]pyrimidin-4-yl)-3-azabicyclo[3.2.1]octan-6-ol], the half-maximal inhibitory concentration (IC50) on KRas^WT was < 2 nM; on KRas^G12C it was < 2 nM; at KRas^G12D it was < 2 nM; at KRas^G12S, < 2 nM; on KRas^G12V it was < 2 nM; in experiment [1], 0.9 nM. The IC50 in [2] is 2280 nM; in [3], 58 nM; in [4], 59 nM; in experiment [5], 17 nM; in [6], 15 nM; in experiment [7] it was 72 nM. The compound also returned an IC50 in experiment [8] of 5 nM.

On to `CCc1c(F)ccc2cc(O)cc(-c3ncc4c(N5CCC[C@]6(C5)NC(=O)NC6=O)nc(OCC56CCCN5C/C(=C\F)C6)nc4c3F)c12` (stereo partly drawn) [Example 794, (5R)-7-(7-(8-ethyl-7-fluoro-3-hydroxynaphthalen-1-yl)-8-fluoro-2-(((Z)-2-(fluoromethylene)tetrahydro-1H-pyrrolizin-7a(5H)-yl)methoxy)pyrido[4,3-d]pyrimidin-4-yl)-1,3,7-triazaspiro[4.5]decane-2,4-dione], for which the IC50 is < 2 nM on KRas^WT; < 2 nM at KRas^G12C; < 2 nM at KRas^G12D; < 2 nM at KRas^G12S; < 2 nM at KRas^G12V; 1 nM in experiment [1]. In addition, the IC50 in experiment [2] is 37 nM; in [3], 32 nM; in experiment [4] it was 27 nM; in [5], 12 nM; in experiment [6], 6 nM; in experiment [7] it was 26 nM. 5 nM corresponded to half-maximal inhibition in experiment [8] (IC50).
